Reference: article PMC11428815, “Characterization of Novel SARM1 Inhibitors for the Treatment of Chemotherapy-Induced Peripheral Neuropathy” (Biomedicines, 2024)

Test system: T1, SARM1 TIR domain (DmrB–TIR)
T1 construct: the SARM1 TIR domain was constructed into an Fkbp variant (DmrB); expressed in transfected cells; host or cells: 293T cells
Test: DmrB–TIR dimerization (AP20187)-induced cell death in 293T cells
Format: cell-based
Details: 24 h after AP20187 addition
From the text: To verify the inhibitory mechanism of SARM1 owing to the TIR domain, the SARM1 TIR domain was constructed into an Fkbp variant (DmrB) at its N terminus, which undergoes homodimerization in the presence of AP20187 (a rapamycin analog) (Figure 2A).
Figure 2 Design and characterization of the toxic effects of the SARM1 TIR domain in 293T cells using different compounds. (A) Scheme for TIR dimerization to verify the TIR domain using an Frb–Fkbp moiety fusion. (B) Compounds used and NR display prevention of DmrB–TIR-dependent death 24 h after AP20187 addition.

NC(=O)c1ccc[n+]([C@@H]2O[C@H](CO)[C@@H](O)[C@H]2O)c1 [NR]
prevention of DmrB–TIR-dependent cell death (cell viability): cell death caused by TIR dimerization was alleviated
